Test system: Energy system protein genes
Assay: DNA chip mRNA expression in yeast, energy system protein genes (Table 4)
Type: cell-based, Saccharomyces cerevisiae S288C
Outline: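 Expression change after 2 h toxicant exposure (growth-inhibiting, sub-lethal) of log-phase S. cerevisiae S288C at 25° C. Oligo-dT-purified mRNA was labeled with Cy3-dUTP or Cy5-dUTP and hybridized >12 h at 65° C. to a genome-wide chip; ratio of scanned fluorescence to control.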

With `C[S+](C)[O-]` [(15), dimethylsulfoxide] the “The level of expressed mRNA in the presence of chemical substance/The level of expressed mRNA in the absence of chemical substance” value (yeast gene YAL038W) was 3.1, the “The level of expressed mRNA in the presence of chemical substance/The level of expressed mRNA in the absence of chemical substance” value (yeast gene YAL054C) was 0.9 and the “The level of expressed mRNA in the presence of chemical substance/The level of expressed mRNA in the absence of chemical substance” value (yeast gene YAL060W) was 0.9. For the same molecule, the “The level of expressed mRNA in the presence of chemical substance/The level of expressed mRNA in the absence of chemical substance” value (yeast gene YBL058W, cells incubated two hours with the chemical substance) was 1.8, the “The level of expressed mRNA in the presence of chemical substance/The level of expressed mRNA in the absence of chemical substance” value (yeast gene YBR126C) was 1.0 and the “The level of expressed mRNA in the presence of chemical substance/The level of expressed mRNA in the absence of chemical substance” value (yeast gene YBR145W) was 1.2. The “The level of expressed mRNA in the presence of chemical substance/The level of expressed mRNA in the absence of chemical substance” value (yeast gene YBR196C) was 1.9, the “The level of expressed mRNA in the presence of chemical substance/The level of expressed mRNA in the absence of chemical substance” value (yeast gene YBR299W) was 0.6 and the “The level of expressed mRNA in the presence of chemical substance/The level of expressed mRNA in the absence of chemical substance” value (yeast gene YCL040W) was 3.4. The “The level of expressed mRNA in the presence of chemical substance/The level of expressed mRNA in the absence of chemical substance” value (yeast gene YCR005C) was 0.7, the “The level of expressed mRNA in the presence of chemical substance/The level of expressed mRNA in the absence of chemical substance” value (yeast gene YCR012W) was 1.4 and the “The level of expressed mRNA in the presence of chemical substance/The level of expressed mRNA in the absence of chemical substance” value (yeast gene YCR107W) was 4.8. The “The level of expressed mRNA in the presence of chemical substance/The level of expressed mRNA in the absence of chemical substance” value (yeast gene YDL067C, cells incubated two hours with the chemical substance) was 0.7, the “The level of expressed mRNA in the presence of chemical substance/The level of expressed mRNA in the absence of chemical substance” value (yeast gene YDL078C, cells incubated two hours with the chemical substance) was 0.5 and the “The level of expressed mRNA in the presence of chemical substance/The level of expressed mRNA in the absence of chemical substance” value (yeast gene YDL085W, cells incubated two hours with the chemical substance) was 0.7. For the same molecule, the “The level of expressed mRNA in the presence of chemical substance/The level of expressed mRNA in the absence of chemical substance” value (yeast gene YDL174C) was 0.6, the “The level of expressed mRNA in the presence of chemical substance/The level of expressed mRNA in the absence of chemical substance” value (yeast gene YDL181W, cells incubated two hours with the chemical substance) was 0.4 and the “The level of expressed mRNA in the presence of chemical substance/The level of expressed mRNA in the absence of chemical substance” value (yeast gene YDL243C) was 4.2. The “The level of expressed mRNA in the presence of chemical substance/The level of expressed mRNA in the absence of chemical substance” value (yeast gene YDR178W, cells incubated two hours with the chemical substance) was 0.7, the “The level of expressed mRNA in the presence of chemical substance/The level of expressed mRNA in the absence of chemical substance” value (yeast gene YDR231C) was 1.0 and the “The level of expressed mRNA in the presence of chemical substance/The level of expressed mRNA in the absence of chemical substance” value (yeast gene YDR298C, cells incubated two hours with the chemical substance) was 0.8. The “The level of expressed mRNA in the presence of chemical substance/The level of expressed mRNA in the absence of chemical substance” value (yeast gene YDR380W) was 2.4, the “The level of expressed mRNA in the presence of chemical substance/The level of expressed mRNA in the absence of chemical substance” value (yeast gene YDR529C, cells incubated two hours with the chemical substance) was 0.5 and the “The level of expressed mRNA in the presence of chemical substance/The level of expressed mRNA in the absence of chemical substance” value (yeast gene YEL020C) was 1.4. For the same molecule, the “The level of expressed mRNA in the presence of chemical substance/The level of expressed mRNA in the absence of chemical substance” value (yeast gene YEL039C, cells incubated two hours with the chemical substance) was 0.4, the “The level of expressed mRNA in the presence of chemical substance/The level of expressed mRNA in the absence of chemical substance” value (yeast gene YEL071W, cells incubated two hours with the chemical substance) was 1.6 and the “The level of expressed mRNA in the presence of chemical substance/The level of expressed mRNA in the absence of chemical substance” value (yeast gene YER061C, cells incubated two hours with the chemical substance) was 0.8. The “The level of expressed mRNA in the presence of chemical substance/The level of expressed mRNA in the absence of chemical substance” value (yeast gene YER178W) was 1.8, the “The level of expressed mRNA in the presence of chemical substance/The level of expressed mRNA in the absence of chemical substance” value (yeast gene YFL057C) was 3.1 and the “The level of expressed mRNA in the presence of chemical substance/The level of expressed mRNA in the absence of chemical substance” value (yeast gene YFR053C) was 0.6. For the same molecule, the “The level of expressed mRNA in the presence of chemical substance/The level of expressed mRNA in the absence of chemical substance” value (yeast gene YGL062W) was 2.7, the “The level of expressed mRNA in the presence of chemical substance/The level of expressed mRNA in the absence of chemical substance” value (yeast gene YGL191W, cells incubated two hours with the chemical substance) was 0.7 and the “The level of expressed mRNA in the presence of chemical substance/The level of expressed mRNA in the absence of chemical substance” value (yeast gene YGL253W) was 0.8. The “The level of expressed mRNA in the presence of chemical substance/The level of expressed mRNA in the absence of chemical substance” value (yeast gene YGR008C) was 1.5, the “The level of expressed mRNA in the presence of chemical substance/The level of expressed mRNA in the absence of chemical substance” value (yeast gene YGR062C, cells incubated two hours with the chemical substance, 25° C., YPD medium) was 0.5 and the “The level of expressed mRNA in the presence of chemical substance/The level of expressed mRNA in the absence of chemical substance” value (yeast gene YGR087C, cells incubated two hours with the chemical substance) was 3.5. The “The level of expressed mRNA in the presence of chemical substance/The level of expressed mRNA in the absence of chemical substance” value (yeast gene YGR174C, cells incubated two hours with the chemical substance) was 0.7, the “The level of expressed mRNA in the presence of chemical substance/The level of expressed mRNA in the absence of chemical substance” value (yeast gene YGR192C) was 1.9 and the “The level of expressed mRNA in the presence of chemical substance/The level of expressed mRNA in the absence of chemical substance” value (yeast gene YGR207C) was 0.6. The “The level of expressed mRNA in the presence of chemical substance/The level of expressed mRNA in the absence of chemical substance” value (yeast gene YGR244C) was 2.0, the “The level of expressed mRNA in the presence of chemical substance/The level of expressed mRNA in the absence of chemical substance” value (yeast gene YGR254W) was 2.4 and the “The level of expressed mRNA in the presence of chemical substance/The level of expressed mRNA in the absence of chemical substance” value (yeast gene YGR256W) was 2.7. The “The level of expressed mRNA in the presence of chemical substance/The level of expressed mRNA in the absence of chemical substance” value (yeast gene YHL008C) was 1.8, the “The level of expressed mRNA in the presence of chemical substance/The level of expressed mRNA in the absence of chemical substance” value (yeast gene YHR174W) was 2.0 and the “The level of expressed mRNA in the presence of chemical substance/The level of expressed mRNA in the absence of chemical substance” value (yeast gene YHR179W) was 2.7. The “The level of expressed mRNA in the presence of chemical substance/The level of expressed mRNA in the absence of chemical substance” value (yeast gene YIL045W) was 0.6, the “The level of expressed mRNA in the presence of chemical substance/The level of expressed mRNA in the absence of chemical substance” value (yeast gene YIL111W) was 1.1 and the “The level of expressed mRNA in the presence of chemical substance/The level of expressed mRNA in the absence of chemical substance” value (yeast gene YIL160C) was 5.6. The “The level of expressed mRNA in the presence of chemical substance/The level of expressed mRNA in the absence of chemical substance” value (yeast gene YIL172C) was 1.4 and the “The level of expressed mRNA in the presence of chemical substance/The level of expressed mRNA in the absence of chemical substance” value (yeast gene YIR031C, cells incubated two hours with the chemical substance) was 0.8.
